Reference: publication PMC11428031, “Discovery of selective LATS inhibitors via scaffold hopping: enhancing drug-likeness and kinase selectivity for potential applications in regenerative medicine” (RSC Medicinal Chemistry, 2024)
Converted amounts (≈) assume the structure as drawn.

Legend:
in vitro [1] = conditions: mouse, liver microsomes
in vitro [2] = conditions: human, liver microsomes
physchem = conditions: D2O (deuterium oxide)
[3] = In vivo pharmacokinetics in male mice; conditions: for Ft: IP; for half-life: T1/2, male mice; for clearance: CL
Description: All animal procedures were performed in accordance with the Guidelines for Care and Use of Laboratory Animals of Korea Research Institute of Chemical Technology and approved by the Animal Ethics Committee of Korea Research Institute of Chemical Technology.

[4] = Liver microsomal phase I stability, mouse; conditions: mouse liver microsomes 0.5 mg/mL, 1 μM compound, NADPH, 37 °C, mean ± SD, n=3
[5] = Liver microsomal phase I stability, human; conditions: for Stability in human liver microsomes relative to 1, Truli: experimental values of Table 4; for HLM phase I stability (% remaining after 30 min): human liver microsomes 0.5 mg/mL, 1 μM compound, NADPH, 37 °C, mean ± SD, n=3
468 kinases = test: KINOMEscan scanMAX kinase profiling, selectivity over the panel; type: binding; conditions: 100 nM, of 403 non-mutant kinases
DMPK = biological target: T1, DMPK (Homo sapiens, UniProt Q09013); test: KINOMEscan scanMAX binding, DMPK; conditions: 100 nM compound; lower = stronger interaction
T1 sequence (Q09013 1-629): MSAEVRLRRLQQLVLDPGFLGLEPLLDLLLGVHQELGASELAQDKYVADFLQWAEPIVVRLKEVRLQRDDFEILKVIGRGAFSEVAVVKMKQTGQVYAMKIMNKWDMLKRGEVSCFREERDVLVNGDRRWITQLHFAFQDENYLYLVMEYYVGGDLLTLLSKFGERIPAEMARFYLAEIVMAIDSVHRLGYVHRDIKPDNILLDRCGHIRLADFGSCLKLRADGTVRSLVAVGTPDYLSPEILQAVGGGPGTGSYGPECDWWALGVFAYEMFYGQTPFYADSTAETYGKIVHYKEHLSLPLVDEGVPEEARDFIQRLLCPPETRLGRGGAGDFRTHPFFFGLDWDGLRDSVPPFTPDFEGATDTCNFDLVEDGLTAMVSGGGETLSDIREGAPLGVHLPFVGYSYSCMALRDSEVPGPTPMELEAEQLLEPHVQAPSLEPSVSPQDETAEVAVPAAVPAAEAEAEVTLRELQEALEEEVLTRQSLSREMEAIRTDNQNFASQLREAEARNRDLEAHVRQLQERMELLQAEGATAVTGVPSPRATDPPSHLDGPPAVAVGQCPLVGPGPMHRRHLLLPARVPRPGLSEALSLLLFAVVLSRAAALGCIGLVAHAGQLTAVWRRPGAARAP

YSK4 = biological target: T2, YSK4 (Homo sapiens, UniProt Q56UN5); test: KINOMEscan scanMAX binding, YSK4; conditions: 100 nM compound; lower = stronger interaction
T2 sequence (Q56UN5 1-1328): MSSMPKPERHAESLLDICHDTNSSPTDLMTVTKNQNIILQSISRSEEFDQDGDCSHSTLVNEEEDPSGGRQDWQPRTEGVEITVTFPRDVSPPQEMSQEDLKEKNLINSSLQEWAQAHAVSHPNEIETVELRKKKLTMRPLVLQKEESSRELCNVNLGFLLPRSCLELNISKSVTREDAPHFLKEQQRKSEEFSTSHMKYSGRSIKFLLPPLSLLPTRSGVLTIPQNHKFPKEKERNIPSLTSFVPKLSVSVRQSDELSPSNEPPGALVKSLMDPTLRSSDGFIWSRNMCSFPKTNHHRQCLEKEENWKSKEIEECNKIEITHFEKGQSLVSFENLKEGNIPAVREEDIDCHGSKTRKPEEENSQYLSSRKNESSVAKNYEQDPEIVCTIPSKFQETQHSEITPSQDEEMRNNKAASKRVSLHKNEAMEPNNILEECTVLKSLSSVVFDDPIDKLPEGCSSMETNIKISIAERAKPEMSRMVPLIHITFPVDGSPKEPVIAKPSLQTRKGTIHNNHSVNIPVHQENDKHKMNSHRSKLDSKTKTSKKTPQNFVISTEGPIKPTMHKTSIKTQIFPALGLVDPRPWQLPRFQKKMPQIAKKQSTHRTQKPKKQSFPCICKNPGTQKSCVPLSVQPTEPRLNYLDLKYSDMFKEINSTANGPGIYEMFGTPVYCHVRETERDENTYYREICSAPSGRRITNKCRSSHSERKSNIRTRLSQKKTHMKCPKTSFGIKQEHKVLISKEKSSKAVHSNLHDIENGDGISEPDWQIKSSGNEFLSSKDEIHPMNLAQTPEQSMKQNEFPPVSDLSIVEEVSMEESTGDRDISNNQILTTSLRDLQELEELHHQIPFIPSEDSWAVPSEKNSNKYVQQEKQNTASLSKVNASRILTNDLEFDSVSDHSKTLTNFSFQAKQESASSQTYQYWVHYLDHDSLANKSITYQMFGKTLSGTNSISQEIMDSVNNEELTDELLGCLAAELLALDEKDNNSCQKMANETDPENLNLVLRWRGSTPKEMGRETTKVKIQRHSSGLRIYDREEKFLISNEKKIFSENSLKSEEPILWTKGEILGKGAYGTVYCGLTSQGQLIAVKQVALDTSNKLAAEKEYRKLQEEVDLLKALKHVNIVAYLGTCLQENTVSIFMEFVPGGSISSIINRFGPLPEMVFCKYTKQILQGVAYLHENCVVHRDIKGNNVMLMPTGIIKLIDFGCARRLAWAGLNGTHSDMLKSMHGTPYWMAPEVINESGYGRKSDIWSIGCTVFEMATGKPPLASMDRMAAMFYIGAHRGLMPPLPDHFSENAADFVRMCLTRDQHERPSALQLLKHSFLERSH

321 protein kinases = system: 321 protein kinases; parameters: method as in PMID 35231442; conditions: out of 321 tested protein kinases; cited from earlier work
[6] = male, mouse, plasma, ip, 10 mg/kg
[7] = male, mouse, plasma, iv, 5 mg/kg
[8] = male, mouse, plasma, iv, 5 mg/kg, male mice
[9] = male, mouse, plasma, po, 20 mg/kg

remaining at 0.5 h, 1 μM (in vitro [1]) [%] | remaining at 0.5 h, 1 μM (in vitro [2]) [%] | solubility at 24 h (physchem) [µg/mL] | HLM phase I stability (% remaining after 30 min) [5] [%] | Compound | Ft ([3]; male mice, 10 mg/kg) [%] | AUC(0-inf) [3, 6] [ng·h/mL] | AUC(0-t) [3, 6] [ng·h/mL] | Cmax [3, 6] [ng/mL] | MRT inf [3, 6] [h] | MRT last [3, 6] [h] | Tmax [3, 6] [h] | half-life [3, 6] [h] | AUC(0-inf) [3, 7] [ng·h/mL] | AUC(0-t) [3, 7] [ng·h/mL] | MRT inf [3, 7] [h] | MRT last [3, 7] [h] | Vd [3, 7] [L/kg] | clearance [3, 8] [mL/min/kg] | half-life [3, 7] [h] | AUC(0-inf) [3, 9] [ng·h/mL] | other results
13.8 ± 0.55 | 43.1 ± 1.1 | 680 ± 89 (≈ 2030 µM) | 43 ± 1.1 | O=C(/N=c1\sccn1Cc1ccccc1)c1c[nH]c2ncncc12 [Compound 5k, (Z)-N-(3-Benzylthiazol-2(3H)-ylidene)-7H-pyrrolo[2,3-d]pyrimidine-5-carboxamide] | 131.71 | 11500 ± 3250 | 11400 ± 3280 | 9510 ± 2030 | 1.27 ± 0.15 | 1.14 ± 0.15 | 0.5 | 5.24 ± 2.45 | 4340 ± 2160 | 4340 ± 2170 | 1.49 ± 1.72 | 1.43 ± 1.65 | 3 ± 4.42 | 23.5 | 2.86 ± 1.88 | 25800 ± 7970 | AUC(0-t) [3, 9]: 25700 ± 8010 ng·h/mL; Cmax [3, 9]: 13300 ± 2820 ng/mL; MRT inf [3, 9]: 1.81 ± 0.94 h; MRT last [3, 9]: 1.74 ± 0.99 h; Tmax [3, 9]: 0.42 ± 0.14 h; bioavailability [3, 9]: 148%; half-life [3, 9]: 4.25 ± 3.57 h; MLM phase I stability (% remaining after 30 min) [4]: 14 ± 0.6%; Stability in human liver microsomes relative to 1, Truli [5]: more than ten times higher stability
 |  |  |  | CC/C(=N\NC(=O)NCc1cccc(O)c1)c1ccc(O)c(C)c1O [3 (GA-017)] |  |  |  |  |  |  |  |  |  |  |  |  |  |  |  |  | Number of protein kinases against which high potency was exhibited (321 protein kinases): 16
0.18 ± 0.03 | 2.68 ± 0.46 | 140 ± 26 (≈ 419 µM) | 2.7 ± 0.5 | O=C(/N=c1\sccn1Cc1ccccc1)c1c[nH]c2ncccc12 [1 (Truli), (Z)-N-(3-benzylthiazol-2(3H)-ylidene)-1H-pyrrolo[2,3-b]pyridine-3-carboxamide, reference compound] |  |  |  |  |  |  |  |  |  |  |  |  |  |  |  |  | 

Compound | remaining at 0.5 h, 1 μM (in vitro [1]) [%] | remaining at 0.5 h, 1 μM (in vitro [2]) [%] | solubility at 24 h (physchem) [µg/mL] | HLM phase I stability (% remaining after 30 min) [5] [%] | Ft ([3]; male mice, 10 mg/kg) [%] | AUC(0-inf) [3, 6] [ng·h/mL] | AUC(0-t) [3, 6] [ng·h/mL] | Cmax [3, 6] [ng/mL] | MRT inf [3, 6] [h] | MRT last [3, 6] [h] | Tmax [3, 6] [h] | half-life [3, 6] [h] | AUC(0-inf) [3, 7] [ng·h/mL] | AUC(0-t) [3, 7] [ng·h/mL] | MRT inf [3, 7] [h] | MRT last [3, 7] [h] | Vd [3, 7] [L/kg] | clearance [3, 8] [mL/min/kg] | half-life [3, 7] [h] | AUC(0-inf) [3, 9] [ng·h/mL] | other results
O=C(/N=c1\sccn1Cc1ccccc1)c1n[nH]c2ncccc12 [Compound 5l, (Z)-N-(3-Benzylthiazol-2(3H)-ylidene)-1H-pyrazolo[3,4-b]pyridine-3-carboxamide] | 0.69 ± 0.17 | 34.9 ± 1.31 | 290 ± 15 (≈ 865 µM) | 35 ± 1.3 | 74.36 | 4390 ± 710 | 4370 ± 720 | 7300 ± 1880 | 1.14 ± 0.21 | 0.97 ± 0.12 | 0.08 | 5.59 ± 0.88 | 2960 ± 150 | 2940 ± 180 | 1.04 ± 0.71 | 0.71 ± 0.25 | 1.8 ± 1.32 | 28.2 | 6.56 ± 3.32 | 5160 ± 590 | Number hits, S(1) (468 kinases; %Ctrl <1): 0; Number hits, S(10) (468 kinases; %Ctrl <10): 2; Number hits, S(35) (468 kinases; %Ctrl <35): 3; %Ctrl @ 100 nM, DMPK (DMPK): 6.5 %Ctrl; %Ctrl @ 100 nM, YSK4 (YSK4): 7.1 %Ctrl; Ft (bioavailability, F) ([3]; male mice, PO, 20 mg/kg): 43.89%; AUC(0-t) [3, 9]: 5150 ± 590 ng·h/mL; Cmax [3, 9]: 5740 ± 920 ng/mL; MRT inf [3, 9]: 1.56 ± 0.1 h; MRT last [3, 9]: 1.5 ± 0.1 h; Tmax [3, 9]: 0.25 h; half-life [3, 9]: 3.46 ± 0.33 h; Stability in human liver microsomes relative to 1, Truli [5]: more than ten times higher stability
